Assay results: patent US8993570B2, “Substituted triazolo-pyridazine derivatives” (Concert Pharmaceuticals, Inc., priority 2009, dated 2015)

Legend:
[1] = Metabolic stability in human liver microsomes; format: in vitro ADME; details: 0.25 μM test compound; for % Parent Remaining (30 min) Ave ± SD: human liver microsomes 2.0 mg/mL, 2 mM NADPH, pH 7.4, 37° C.; for half-life at 0.25 μM: pH 7.4, in vitro t1/2 in human liver microsomes 2.0 mg/mL, NC = not calculable due to <20% metabolism in HLM and flat profiles, read-out: t1/2 (min) Ave ± SD
Protocol: Microsomal Assay: Human liver microsomes (20 mg/mL) were obtained from Xenotech, LLC (Lenexa, Kans.). β-nicotinamide adenine dinucleotide phosphate, reduced form (NADPH), magnesium chloride (MgCl2), and dimethyl sulfoxide (DMSO) were purchased from Sigma-Aldrich.
Determination of Metabolic Stability: 7.5 mM stock solutions of test compounds were prepared in DMSO. The 7.5 mM stock solutions were diluted to 12.5 μM in acetonitrile (ACN). The 20 mg/mL human liver microsomes were diluted to 2.5 mg/mL in 0.1 M potassium phosphate buffer, pH 7.4, containing 3 mM MgCl2. The diluted microsomes were added to wells of a 96-well deep-well polypropylene plate in triplicate. […] of the 12.5 μM test compound was added to the microsomes and the mixture was pre-warmed for 10 minutes. Reactions were initiated by addition of pre-warmed NADPH solution. The final reaction volume was 0.5 mL and contains 2.0 mg/mL human liver microsomes, 0.25 μM test compound, and 2 mM NADPH in 0.1 M potassium phosphate buffer, pH 7.4, and 3 mM MgCl2. The reaction mixtures were incubated at 37° C., and 50 μL aliquots were removed at 0, 5, 10, 20, and 30 minutes and added to shallow-well 96-well plates which contain 50 μL of ice-cold ACN with internal standard to stop the reactions. The plates were stored at 4° C. for 20 minutes after which 100 μL of water was added to the wells of the plate before centrifugation to pellet precipitated proteins. Supernatants were transferred to another 96-well plate and analyzed for amounts of parent remaining by LC-MS/MS using an Applied Bio-systems API 4000 mass spectrometer. The same procedure was followed for TPA-023 and the positive control, 7-ethoxycoumarin (1 μM). Testing was done in triplicate and individual compounds were tested in two or four different runs.
The in vitro t1/2s for test compounds were calculated from the slopes of the linear regression of % parent remaining (ln) vs incubation time relationship: in vitro t1/2=0.693/k k=−[slope of linear regression of % parent remaining (ln) vs incubation time]. Data analysis was performed using Microsoft Excel Software.
The results of these experiments are shown in Table 3, below, and in FIGS. 1 and 2. In the Table and the two Figures, “% Parent remaining” refers to the percentage of starting material remaining at the specified time point.

[2] = humans, phase I clinical trial, cited from earlier work

Row | Structure (SMILES) | % Parent Remaining (30 min) Ave ± SD [1] | other results
1 | [2H]C([2H])([2H])C(c1cc2nnc(-c3ccccc3F)n2nc1OCc1ncnn1CC)(C([2H])([2H])[2H])C([2H])([2H])[2H] [Compound 102, 7-d9-tert-Butyl-6-((1-ethyl-1H-1,2,4-triazol-5-yl)methoxy)-3-(2-fluorophenyl)-[1,2,4]-triazolo[4,3-b]pyridazine] | 80 ± 3.3% | half-life at 0.25 μM [1]: 85.6 ± 6.1 min
2 | [2H]C([2H])([2H])n1ncnc1COc1nn2c(-c3ccccc3F)nnc2cc1C(C([2H])([2H])[2H])(C([2H])([2H])[2H])C([2H])([2H])[2H] [Compound 109, 7-d9-tert-Butyl-3-(2-fluorophenyl)-6-((1-d3-methyl-1H-1,2,4-triazol-5-yl)methoxy)-[1,2,4]triazolo[4,3-b]pyridazine] | 100 ± 5.7% | 
3 | [2H]C([2H])([2H])C(O)(c1cc2nnc(-c3ccccc3F)n2nc1OCc1ncnn1CC)C([2H])([2H])[2H] [Compound 202, 2-(6-((1-ethyl-1H-1,2,4-triazol-5-yl)methoxy)-3-(2-fluorophenyl)[1,2,4]triazolo[4,3-b]pyridazin-7-yl)propan-1,1,1,3,3,3-d6-2-ol] | 82 ± 2.8% | 
4 | [2H]C([2H])(Oc1nn2c(-c3ccccc3F)nnc2cc1C(O)(C([2H])([2H])[2H])C([2H])([2H])[2H])c1ncnn1C([2H])([2H])C([2H])([2H])[2H] [Compound 206, 2-(6-((1-d5-Ethyl-1H-1,2,4-triazol-5-1)methoxy-d2)-3-(2-fluorophenyl)-[1,2,4]triazolo[4,3-b]pyridazin-7-yl)propan-1,1,1,3,3,3-d6-2-ol] | 92 ± 3.5% | 
5 | CCn1ncnc1COc1nn2c(-c3ccccc3F)nnc2cc1C(C)(C)C [TPA023, 7-tert-Butyl-6-(1-ethyl-1H-1,2,4-triazol-5-ylmethoxy)-3-(2-fluorophenyl)-1,2,4-triazolo[4,3-b]pyridazine] | 62 ± 3.1% | half-life at 0.25 μM [1]: 44.5 ± 4.4 min; sedative effects ([2]; certain doses tested): sedative effects at certain doses tested; anxiolytic effects [2]: anxiolytic effects; effect on alertness, muscle relaxation or memory [2]: no effect

The next lines start with results.

Row | % Parent Remaining (30 min) Ave ± SD [1] | Structure (SMILES) | other results
6 | 90 ± 0.7% | [2H]C([2H])([2H])C([2H])([2H])n1ncnc1COc1nn2c(-c3ccccc3F)nnc2cc1C(C([2H])([2H])[2H])(C([2H])([2H])[2H])C([2H])([2H])[2H] [Compound 105] | 
7 | 89 ± 2.5% | [2H]C([2H])(Oc1nn2c(-c3ccccc3F)nnc2cc1C(C([2H])([2H])[2H])(C([2H])([2H])[2H])C([2H])([2H])[2H])c1ncnn1C([2H])([2H])C([2H])([2H])[2H] [Compound 106, 7-d9-tert-Butyl-6-((1-d5-ethyl-1H-1,2,4-triazol-5-yl)-methoxy-d2)-3-(2-fluorophenyl)-[1,2,4]triazolo[4,3-b]pyridazine] | 
8 | 91 ± 7.1% | [2H]C([2H])(Oc1nn2c(-c3ccccc3F)nnc2cc1C(C([2H])([2H])[2H])(C([2H])([2H])[2H])C([2H])([2H])[2H])c1ncnn1C([2H])([2H])[2H] [Compound 110, 7-d9-tert-Butyl-3-(2-fluorophenyl)-6-((1-d3-methyl-1H-1,2,4-triazol-5-yl)-methoxy-d2)-[1,2,4]triazolo[4,3-b]pyridazine] | 
